The values that follow come from ChEMBL document CHEMBL4251606, “Design and characterization of α-lipoic acyl shikonin ester twin drugs as tubulin and PDK1 dual inhibitors” (Eur J Med Chem, 2018).

Assay [1] relates to HeLa. Description: Induction of apoptosis in human HeLa cells assessed as viable cells at 2 uM after 24 hrs by Annexin V-APC/propidium iodide staining-based FACScan flow cytometric analysis (reference value: 85.1%). In kind it is functional. The conditions noted are these: read-out: Activity. Background: A flow cytometer gives signals particle by particle.
For assay [2], the system named is A549. Description: Antiproliferative activity against human A549 cells after 24 hrs by MTT assay. In kind it is functional, cell-based. The conditions noted are these: A549, 24 h. A general note: Tetrazolium dyes change colour on reduction, which living cells bring about.
Assay [3] concerns HeLa. Description: Cell cycle arrest in human HeLa cells assessed as accumulation of cells at S phase at 2 uM after 24 hrs by propidium iodide staining-based FACScan flow cytometric analysis (reference value: 20.16%). The assay is classed as functional.
The test system of assay [4] is HeLa. Description: Cell cycle arrest in human HeLa cells assessed as accumulation of cells at G1 phase at 4 uM after 24 hrs by propidium iodide staining-based FACScan flow cytometric analysis (reference value: 62.92%). In kind it is functional.
The subject of assay [5] is HeLa. Description: Antitumor activity against human HeLa cells xenografted in nude mouse assessed as reduction in tumor size at 2 mg/kg, ip administered once in every 2 days for 15 days relative to control. In kind it is functional. A general note: Xenograft models place foreign cells or tissue in a host animal.

By IC50 is commonly meant the concentration that inhibits the measured activity by half. A lower IC50 goes with inhibition by little substance. Turning to `CC(C)=CC[C@@H](OC(=O)CCCC[C@@H]1CCSC(c2ccccc2)S1)C1=CC(=O)c2c(O)ccc(O)c2C1=O` (stereo not given in full), in assay [1], the viability at 2 µM came out at 23.6%. This compound had a 50% inhibitory concentration (IC50) in assay [2] of 16.4 µM. Moreover, the results for the Activity in assay [3] and in assay [4] were 16.37% and 25.74%, respectively. Also, the “fold change (FC)” value in assay [5] was 5.
